Results as given in patent US8912227B1, “Bicyclic pyrrole derivatives useful as agonists of GPR120” (Janssen Pharmaceutica NV, priority 2014, dated 2014).

Columns and labels:
[1] = target: T1, long form of human GPR120 (Homo sapiens, UniProt Q5NUL3); experiment: Human GPR120 DiscoveRx PathHunter β-Arrestin assay, Procedure β-arrestin A; assay type: cell-based; conditions: PathHunter CHO-K1 GPR120 β-Arrestin cell line, 3000 cells per well
T1 construct: host or cells: PathHunter CHO-K1 GPR120 β-Arrestin Cell Line
T1 sequence (Q5NUL3 1-377 isoform Q5NUL3-1): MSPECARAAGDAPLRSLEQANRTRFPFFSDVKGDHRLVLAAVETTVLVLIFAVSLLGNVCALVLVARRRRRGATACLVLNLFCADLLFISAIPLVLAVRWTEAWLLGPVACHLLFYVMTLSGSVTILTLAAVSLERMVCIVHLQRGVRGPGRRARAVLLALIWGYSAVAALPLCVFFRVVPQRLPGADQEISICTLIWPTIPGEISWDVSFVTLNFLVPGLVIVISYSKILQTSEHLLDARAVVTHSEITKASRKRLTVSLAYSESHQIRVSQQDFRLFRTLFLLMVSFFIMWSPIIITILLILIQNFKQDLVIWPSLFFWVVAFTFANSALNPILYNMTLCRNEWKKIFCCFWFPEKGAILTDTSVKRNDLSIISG
T1 sequence (P32121 whole entry partner): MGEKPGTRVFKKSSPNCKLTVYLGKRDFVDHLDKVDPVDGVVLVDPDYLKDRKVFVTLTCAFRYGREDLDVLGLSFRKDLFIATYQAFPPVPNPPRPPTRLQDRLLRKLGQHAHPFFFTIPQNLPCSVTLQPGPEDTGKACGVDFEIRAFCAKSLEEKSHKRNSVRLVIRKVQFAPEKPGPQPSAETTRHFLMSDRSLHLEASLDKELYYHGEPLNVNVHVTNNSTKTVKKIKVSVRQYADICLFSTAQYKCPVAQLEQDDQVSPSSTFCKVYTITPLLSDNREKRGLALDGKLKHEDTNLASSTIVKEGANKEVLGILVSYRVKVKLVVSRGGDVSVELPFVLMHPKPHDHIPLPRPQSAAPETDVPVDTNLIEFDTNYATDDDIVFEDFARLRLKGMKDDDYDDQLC
Excerpt: (§1) The binding of an agonist (medium/long chain fatty acids or small molecule agonists) to the G-protein-coupled receptor GPR120 activates phospholipase C, leading to release of intracellular Ca^+2 through the generation of inositol 1,4,5-trisphosphate (InsP3 or IP3). GPR120 activation can also trigger intracellular signaling via recruitment of β-Arrestin. In the present method, agonist-induced activation of the human GPR120 receptor is monitored through the use of PathHunter CHO-K1 GPR120 β-Arrestin Cell Line engineered by DiscoveRx, as detailed below. The cell lines are designed to co-express both the ProLink/Enzyme Donor (PK)-tagged GPCR and the Enzyme […] (EA)-tagged Beta-Arrestin fusion proteins. Upon GPR120 receptor stimulation/activation, the EA-tagged β-Arrestin portion is translocated to the tagged receptor, where the two enzyme fragments are brought within close proximity. Under these conditions, these fragments can interact and form an active Beta-gal enzyme complex through Enzyme Fragment Complementation (EFC). This active Beta-gal complex can enzymatically hydrolyse the substrate to produce a detectable light signal; therefore, activation as a function of agonist concentration can be expressed as an EC50 value to determine relative compound activities. This in vitro assay therefore serves to assess compound agonist activity of the GPR120.
In Procedure β-arrestin A, the cell used were PathHunter CHO-K1 GPR120 β-Arrestin Cell Line, expressing the long form of human GPR120 (Genbank accession number NM_181745), with 3000 cells per well.
(§2) The selected CHO-K1 GPR120 β-Arrestin cells were cultured in Ham's F12 media supplemented with 10% fetal bovine serum (FBS), 1% Glutamine, 1×p/s, 800 μg/ml G418 and 300 μg/ml Hygromycin B (for selection). Cell stocks were maintained and grown in a sub-confluent state using standard cell culture procedures. The day before the experiment, the cells were harvested with non-enzymatic cell dissociation buffer and re-suspended in complete growth media at the desired concentration. A Corning 384-plate was then seeded with the proper number of cells in a volume of 25 μL, per well. The seeded plates were incubated overnight at 37° C.
(§3) On the day of the experiment, the Assay Buffer containing (a) HBSS with Ca^++ and Mg^++, (b) 20 mM HEPES, and (c) 0.1% BSA stabilizer (pH 7.4) was prepared. The growth medium was gently removed from the cell plates and 20 μL of Assay Buffer added to each well. The plate was then incubated at 37° C. for 60 mins. Test compounds were serially diluted in Assay Buffer to desired concentrations (more particularly, to one or more of the following μM concentrations: 25 μM, 12.5 μM, 6.25 μM, 3.125 μM, 1.562 μM, 0.781 μM, 0.391 μM, 0.195 μM, 0.098 μM, 0.049 μM, 0.024 μM, 0.012 μM). Five μl of compound dilution was then added to each well and the plate incubated at 37° C. for 90 mins. The detection reagents were prepared according to the manufacture's instruction. Twelve μL of the detection reagents were added to each well and the plate incubated at room temperature for 60 mins.
(§4) The plates were read on an EnVision instrument, using Protocol name: Luminescence, Plate type: 384 Costar, Measurement height: 3 mm, Measurement time: 1 s, Aperture: 384 Plate aperture. The % activity relative to the positive control was calculated using the following equation:
(§5) The % Activity values were plotted versus the concentration of test compound and fitted to a sigmoidal dose-response curve with a Hill slope=1 (fixed value) using nonlinear regression with GraphPad Prism 5.0 to calculate the EC50 values. The Fitting Equation was: Y=Bottom+(Top−Bottom)/(1+10^((LogEC50−X)*HillSlope)), where X is the log of the concentration and Y is the response.

[2] = target: T2, short form of the GPR120 receptor (Homo sapiens, UniProt Q5NUL3); experiment: Human GPR120 DiscoveRx PathHunter β-Arrestin assay, Procedure β-arrestin B; assay type: cell-based; conditions: PathHunter CHO-K1 GPR120S β-Arrestin cell line, 5000 cells/well
T2 construct: host or cells: PathHunter CHO-K1 GPR120S β-Arrestin Cell Line
T2 sequence (Q5NUL3 whole entry): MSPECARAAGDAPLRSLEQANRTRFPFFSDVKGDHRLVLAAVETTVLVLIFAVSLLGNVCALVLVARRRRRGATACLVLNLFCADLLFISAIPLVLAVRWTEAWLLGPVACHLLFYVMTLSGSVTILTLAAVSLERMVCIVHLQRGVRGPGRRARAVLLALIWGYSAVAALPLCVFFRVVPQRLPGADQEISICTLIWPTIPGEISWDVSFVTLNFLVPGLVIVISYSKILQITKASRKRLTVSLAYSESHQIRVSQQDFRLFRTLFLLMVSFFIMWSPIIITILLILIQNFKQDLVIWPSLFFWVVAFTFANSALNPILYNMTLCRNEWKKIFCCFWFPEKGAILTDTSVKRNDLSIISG
T2 sequence (P32121 whole entry partner): as the sequence (P32121 whole entry partner) above
Excerpt: as §1
In Procedure β-arrestin B the cells used were PathHunter CHO-K1 GPR120S β-Arrestin Cell Line, expressing the short form of the GPR120 receptor (Accession #NM_181745), with 5000 cells/well.
as §2, §3, §4, §5

EC50 [1] [nM]	EC50 [2] [nM]	SMILES
1040		Cc1c(CCC(=O)O)ccc(OCc2cccn2-c2ccc(Cl)cc2)c1C [Compound 1, 3-(4-{[1-(4-Chlorophenyl)-1H-pyrrol-2-yl]methoxy}-2,3-dimethylphenyl)propanoic acid]
264	219	Cc1ccc(-n2ccc(C(F)(F)F)c2COc2c(F)cc(CCC(=O)O)cc2F)cc1 [Compound 39, 3-(3,5-difluoro-4-[[1-(4-methylphenyl)-3-(trifluoromethyl)-1H-pyrrol-2-yl]methoxy]phenyl)propanoic acid]
53	63	OCCCc1ccc(OCc2c(C(F)(F)F)ccn2-c2ccc(Cl)cc2)c(F)c1F [Compound 29, 3-(4-{[1-(4-Chlorophenyl)-3-(trifluoromethyl)-1H-pyrrol-2-yl]methoxy}-2,3-difluorophenyl)propan-1-ol]
171	179	CCc1ccc(-n2ccc(C(F)(F)F)c2COc2ccc(CCC(=O)O)c(F)c2F)cc1 [Compound 34, 3-(4-[[1-(4-ethylphenyl)-3-(trifluoromethyl)-1H-pyrrol-2-yl]methoxy]-2,3-difluorophenyl)propanoic acid]
